Assays:
Assay in all cases: relative viability (nuclei count vs DMSO), 5 days (fraction); higher = more cells survive
[1] = compound: CCOc1cc2ncc(C#N)c(Nc3ccc(OCc4ccccn4)c(Cl)c3)c2cc1NC(=O)/C=C/CN(C)C [Neratinib] + CCNC(=O)c1noc(-c2cc(C(C)C)c(O)cc2O)c1-c1ccc(CN2CCOCC2)cc1 [Luminespib] (partner 0.01 µM)
In short: (§1)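 Lung cancer cell lines, seeded in 1536-well plates, were treated the following day by pin tool with a single drug or with five library-drug doses (not always all listed) in √10 steps on top of a fixed anchor-drug dose. Cells were fixed and nuclei stained in one step after 5 days, and nuclei were counted. Relative viability is the nuclei count for treated wells divided by that for vehicle wells, reported as medians of duplicate plates.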

[2] = compound: CCOc1cc2ncc(C#N)c(Nc3ccc(OCc4ccccn4)c(Cl)c3)c2cc1NC(=O)/C=C/CN(C)C [Neratinib] + CC1(C)CCC(c2ccc(Cl)cc2)=C(CN2CCN(c3ccc(C(=O)NS(=O)(=O)c4ccc(N[C@H](CCN5CCOCC5)CSc5ccccc5)c(S(=O)(=O)C(F)(F)F)c4)cc3)CC2)C1 [Navitoclax] (partner 0.5 µM)
In short: as §1

[3] = compound: CCOc1cc2ncc(C#N)c(Nc3ccc(OCc4ccccn4)c(Cl)c3)c2cc1NC(=O)/C=C/CN(C)C [Neratinib] + COc1cc2c(Oc3ccc(NC(=O)C4(C(=O)Nc5ccc(F)cc5)CC4)cc3F)ccnc2cc1OCCCN1CCOCC1 [Foretinib] (partner 0.25 µM)
In short: as §1

[4] = compound: CCOc1cc2ncc(C#N)c(Nc3ccc(OCc4ccccn4)c(Cl)c3)c2cc1NC(=O)/C=C/CN(C)C [Neratinib] + C[C@]1(O)C[C@@H](c2nc(-c3ccc4ccc(-c5ccccc5)nc4c3)c3c(N)nccn32)C1 [Linsitinib] (partner 1 µM)
In short: as §1

Cell Line | relative viability ([1]; first compound 0.01 µM) | relative viability ([1]; first compound 0.03162 µM) | relative viability ([1]; first compound 0.1 µM) | relative viability ([1]; first compound 0.3162 µM) | relative viability ([1]; first compound 1 µM) | relative viability ([2]; first compound 0.01 µM) | relative viability ([2]; first compound 0.3162 µM) | relative viability ([2]; first compound 1 µM) | relative viability ([3]; first compound 0.01 µM) | relative viability ([3]; first compound 0.03162 µM) | relative viability ([3]; first compound 0.3162 µM) | relative viability ([3]; first compound 1 µM) | relative viability ([4]; first compound 0.01 µM) | relative viability ([4]; first compound 0.03162 µM) | relative viability ([4]; first compound 0.1 µM) | relative viability ([4]; first compound 0.3162 µM) | relative viability ([4]; first compound 1 µM) | relative viability ([2]; first compound 0.03162 µM) | relative viability ([2]; first compound 0.1 µM) | relative viability ([3]; first compound 0.1 µM)
NCI-H1755 | 0.544 | 0.488 | 0.444 | 0.419 | 0.488 | 1.06 | 1.02 | 0.469 | 0.876 | 0.988 | 0.972 | 0.745 | 1.04 | 0.988 | 0.911 | 1.05 | 0.775 | – | – | –
NCI-H1793 | 0.153 | 0.182 | 0.153 | 0.164 | 0.157 | 0.757 | 0.352 | 0.217 | 0.723 | – | 0.338 | 0.32 | 0.863 | 1.03 | 0.494 | 0.596 | 0.364 | 0.497 | 0.371 | 0.408
NCI-H1915 | 0.845 | 0.818 | 0.422 | 0.792 | 0.462 | 0.764 | 0.736 | 0.744 | 1.08 | 1.08 | 1.05 | 0.709 | 1.11 | 1.13 | – | 1.09 | 0.874 | 0.862 | 0.757 | 1.08
NCI-H1944 | – | 0.669 | – | 0.523 | 0.306 | 1.03 | 0.814 | 0.677 | 0.878 | 0.929 | 0.599 | 0.327 | 1.28 | 1.08 | 0.93 | 0.645 | 0.435 | 1 | 0.871 | –
NCI-H1975 | 0.289 | 0.174 | 0.311 | 0.123 | 0.186 | 1.26 | 0.394 | 0.238 | – | 1.02 | 0.421 | 0.174 | 1.13 | 1.12 | 0.78 | 0.285 | 0.223 | 1.33 | 0.788 | 0.972
NCI-H1993 | 0.717 | 0.83 | 0.719 | 0.599 | 0.511 | 0.911 | 0.651 | 0.574 | 0.82 | 0.662 | 0.567 | 0.657 | 0.833 | 0.659 | 0.71 | 0.648 | 0.838 | 0.986 | 0.815 | 0.6
NCI-H2009 | 0.998 | 1.01 | 0.828 | 1.01 | 0.962 | 1.13 | 1.13 | 0.999 | 1.2 | 1.29 | 1.25 | 1.05 | 1.2 | 1.15 | 0.85 | 1.18 | – | 1.23 | 1.12 | 1.17
NCI-H2023 | 0.999 | 0.871 | 0.579 | 0.709 | 0.579 | 0.987 | 0.943 | 0.699 | 0.797 | 0.803 | 0.454 | 0.257 | 0.658 | 0.675 | 0.465 | 0.446 | 0.303 | 1.04 | 0.909 | 0.415
NCI-H2085 | 0.4 | 0.455 | 0.353 | 0.3 | 0.294 | 1.18 | 0.88 | 0.804 | 0.801 | 1.08 | 0.64 | 0.31 | 0.858 | 1.11 | 0.81 | 0.668 | 0.474 | 1.14 | – | 0.761
NCI-H2087 | 0.16 | 0.172 | 0.151 | 0.14 | 0.148 | 1.04 | 1 | 0.444 | 1.36 | 1.24 | 0.742 | 0.536 | 0.951 | 0.949 | – | 0.765 | 0.615 | 0.896 | – | 1.05
NCI-H2126 | 0.932 | 0.853 | 0.828 | 0.822 | 0.464 | 0.861 | 0.748 | 0.35 | 1.37 | 1.36 | 1.09 | 0.536 | 0.693 | 0.719 | 0.581 | 0.654 | 0.38 | 0.831 | 0.682 | 1.13
NCI-H2228 | 0.145 | 0.138 | 0.14 | 0.12 | 0.114 | 0.929 | 0.953 | 0.258 | – | 0.95 | 0.646 | 0.204 | 0.88 | 0.526 | 0.388 | 0.582 | 0.421 | 1.57 | 0.802 | 0.715
NCI-H2347 | 0.472 | 0.385 | – | 0.483 | 0.289 | 0.819 | 0.786 | 0.698 | 0.686 | 0.909 | 0.586 | 0.711 | 0.989 | 0.988 | 0.95 | 0.992 | 0.974 | 0.945 | 0.68 | –
NCI-H2405 | 0.859 | 0.73 | 0.562 | 0.577 | 0.354 | 0.904 | 0.785 | 0.188 | 1.06 | 1.08 | 1.04 | 0.57 | 0.945 | 1.03 | 0.836 | 0.792 | 0.469 | 0.887 | 0.784 | 0.922
NCI-H3122 | 0.103 | 0.0884 | 0.119 | 0.102 | 0.11 | 1.05 | 1.03 | 0.407 | 1.05 | 0.985 | 0.958 | 0.171 | 1.05 | 0.993 | 1.04 | 1.02 | 0.256 | 1.02 | 1.05 | 0.94
PC-3 [JPC-3] | 0.702 | 0.733 | 0.648 | 0.496 | 0.326 | 0.731 | 0.624 | 0.333 | 1.07 | 1.14 | 0.815 | 0.318 | 1.03 | 1.03 | 0.894 | – | 0.348 | 0.826 | 0.784 | 0.927

From the supplement of paper PMC10307832
